Results taken from ChEMBL document CHEMBL6078634, “HDAC8 as a target in drug discovery: Function, structure and design” (Eur J Med Chem, 2024).
Values belong to the molecule of their own block, whether it stands above or below them.

Assays:
[1] = molecular target: von Hippel-Lindau disease tumor suppressor/Histone deacetylase 8 (+); test: PROTAC activity at VHL/HDAC8 in human Jurkat cells assessed as induction of HDAC8 degradation measured for 6 hrs by Western blot analysis
Histone deacetylase = test: Inhibition of HDAC in human HeLa nuclear extract using Boc-Lys(Ac)-AMC or Boc-Lys(Tfa)-AMC as substrate pre-incubated for 5 mins followed by substrate addition and measured after 30 mins by fluorescence assay; format: cell-free
Histone deacetylase 2 = Histone deacetylase 2 (Homo sapiens, UniProt Q92769); test: Inhibition of HDAC2 (unknown origin)
Histone deacetylase 8 = molecular target: T1, Histone deacetylase 8 (Homo sapiens, UniProt Q9BY41); test: Inhibition of HDAC8 (unknown origin) using biotinylated histone H3 KAc peptide (1 to 21 residues) as substrate by HTRF assay
T1 sequence (Q9BY41 whole entry): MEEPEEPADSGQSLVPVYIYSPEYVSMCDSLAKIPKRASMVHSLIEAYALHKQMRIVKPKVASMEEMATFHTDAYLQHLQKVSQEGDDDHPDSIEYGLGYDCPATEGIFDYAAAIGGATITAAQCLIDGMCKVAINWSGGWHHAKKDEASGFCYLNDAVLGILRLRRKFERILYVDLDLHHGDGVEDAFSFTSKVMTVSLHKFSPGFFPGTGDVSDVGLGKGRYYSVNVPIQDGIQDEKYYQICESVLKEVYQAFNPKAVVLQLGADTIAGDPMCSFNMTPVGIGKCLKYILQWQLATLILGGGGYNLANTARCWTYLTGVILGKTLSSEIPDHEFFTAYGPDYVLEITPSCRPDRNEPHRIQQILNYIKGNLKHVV

Histone deacetylase 2, sequence (Q92769 whole entry, the tested form may be a part): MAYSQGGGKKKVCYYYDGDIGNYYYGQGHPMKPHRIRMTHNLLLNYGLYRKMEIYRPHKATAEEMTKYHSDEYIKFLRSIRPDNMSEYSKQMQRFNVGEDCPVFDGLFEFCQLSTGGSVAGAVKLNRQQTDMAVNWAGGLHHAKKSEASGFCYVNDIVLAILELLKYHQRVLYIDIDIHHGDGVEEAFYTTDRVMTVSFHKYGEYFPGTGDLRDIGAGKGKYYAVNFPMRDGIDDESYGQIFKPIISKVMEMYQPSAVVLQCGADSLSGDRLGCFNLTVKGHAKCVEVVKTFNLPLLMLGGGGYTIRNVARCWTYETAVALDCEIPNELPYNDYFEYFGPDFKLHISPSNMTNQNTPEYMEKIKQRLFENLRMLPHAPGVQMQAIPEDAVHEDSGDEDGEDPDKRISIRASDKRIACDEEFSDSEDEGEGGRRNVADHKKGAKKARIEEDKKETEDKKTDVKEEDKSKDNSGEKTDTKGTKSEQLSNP

- DC50 [1]: 0.58 µM
Structure (SMILES): O=C1CCC(N2C(=O)c3cccc(NCc4cn(CCOCCOc5ccc(Cn6ccc7ccc(C(=O)NO)cc76)cc5)nn4)c3C2=O)C(=O)N1 (stereo not given)

- DC50 [1]: 0.0018 µM
Structure (SMILES): COc1ccc(C(=O)NO)cc1OCc1ccc(C(=O)NCCCCCCCCNc2cccc3c2C(=O)N(C2CCC(=O)NC2=O)C3=O)cc1 (stereo not given)

- IC50 (Histone deacetylase): > 10 µM
Structure (SMILES): COc1ccc(/C=C/C(=O)NO)c(-c2ccc(Br)cc2)c1

- IC50 (Histone deacetylase 2): 129 µM
- IC50 (Histone deacetylase 8): 40.2 µM
Structure (SMILES): O=c1cc(-c2ccccc2)oc2cc(O)cc(O)c12 [CHRYSIN]
